The values below come from US5281628A, “9-amino-7-(substituted)-6-demethyl-6-deoxytetracyclines” (American Cyanamid Company, priority 1991, dated 1994).

For test [1], the system named is E. coli UBMS 90-5 (tetracycline-sensitive). The test is described as follows: MIC, microtiter broth dilution. Conditions: Escherichia coli, 18 h. The test is classed as cell-based. Put shortly: (§1)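 Because these compounds oxidize readily, cysteine or dithiothreitol is included in the Mueller-Hinton II test broth. Organisms at 1-5×10^5 CFU/ml are exposed to drug at 32–0.004 μg/ml in microtiter wells.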
(In general: Dilution methods test growth across graded concentrations, often in twofold steps.)

Test [2] has as its system E. faecalis CI 2735. The test is described as follows: MIC, microtiter broth dilution. The test is classed as cell-based. Conditions: Enterococcus faecalis, CI2735, 18 h. Put shortly: as §1
For test [3], the system named is P. aeruginosa ATCC 27853. The test is described as follows: MIC, microtiter broth dilution. The test is classed as cell-based. The following applies: Pseudomonas aeruginosa, ATCC27853, 18 h. Put shortly:
as §1

For test [4], the system named is S. aureus ATCC 29213. Briefly: MIC, microtiter broth dilution. The test is classed as cell-based. Conditions: Staphylococcus aureus, ATCC29213, 18 h. Put shortly:
as §1

Test [5] deals with S. aureus CI 3300 (methicillin-resistant). The test is described as follows: MIC, microtiter broth dilution. Conditions: Staphylococcus aureus, 18 h. The test is classed as cell-based. The gist of the method:
as §1

The test system of test [6] is S. aureus IVES 1983 (methicillin-resistant). The test is described as follows: MIC, microtiter broth dilution. Conditions: Staphylococcus aureus, 18 h. The test is classed as cell-based. Put shortly: as §1
In test [7] the test system is E. coli 311 (sens). Briefly: Acute lethal infections in mice. The test is classed as in vivo. Conditions: Escherichia coli, sc, 168 h, Subcutaneous, Single Dose, 7 day survival. As to the method:
(§2) The therapeutic effects of tetracyclines are determined against acute lethal infections with various staphylococcal and E. coli strains. Female mice, strain CD-1 Charles River Laboratories, (20±2 grams) are challenged by an intraperitoneal injection of sufficient bacteria (suspended in broth or hog gastric mucin) to kill non-treated controls within 24-48 hours. Antibacterial agents, contained in 0.5 ml of 0.2% aqueous agar, are administered subcutaneously or orally 30 minutes after infection. When an oral dosing schedule is used, animals are deprived of food for 5 hours before and 2 hours after infection. Five mice are treated at each dose level. The 7 day survival ratios from three separate tests are pooled for calculation of median effective dose (ED50).

Test [8] deals with E. coli UBMS 90-4 (tetM). Briefly: Acute lethal infections in mice. The test is classed as in vivo. Conditions: Escherichia coli, sc, 168 h. As to the method:
as §2

Test [9] concerns S. aureus Smith (sens). Briefly: Acute lethal infections in mice. The following applies: Staphylococcus aureus, 168 h, Single Dose, 7 day survival. The test is classed as in vivo. The procedure: as §2
The subject of test [10] is S. aureus UBMS 90-1 (tetM). The test is described as follows: Acute lethal infections in mice. The test is classed as in vivo. The following applies: Staphylococcus aureus, sc, 168 h. As to the method: as §2
Test [11] concerns S. aureus UBMS 90-2 (tetM). Briefly: Acute lethal infections in mice. The following applies: Staphylococcus aureus, 168 h. The test is classed as in vivo. As to the method: as §2
Test [12] deals with S. aureus and E. coli. The test is described as follows: Acute lethal infections in mice, statements over several strains. The test is classed as in vivo. Conditions: S. aureus and E. coli carrying tetM. As to the method:
as §2

The test system of test [13] is E. coli UBMS 89-1 (tetM). Briefly: MIC, microtiter broth dilution. The test is classed as cell-based. Conditions: Escherichia coli, 18 h. Put shortly: as §1
The test system of test [14] is E. coli UBMS 89-2 (tetracycline-sensitive). The test is described as follows: MIC, microtiter broth dilution. The test is classed as cell-based. Conditions: Escherichia coli, 18 h, no cysteine stated. The gist of the method: as §1
The subject of test [15] is E. coli UBMS 90-4 (tetM). The test is described as follows: MIC, microtiter broth dilution. The test is classed as cell-based. The following applies: Escherichia coli, 18 h. The gist of the method:
as §1

Test [16] concerns E. faecalis AMV 120 (tetM). The test is described as follows: MIC, microtiter broth dilution. The test is classed as cell-based. Conditions: Enterococcus faecalis, 18 h. Put shortly:
as §1

Test [17] deals with E. faecalis PAM 211 (tetN). The test is described as follows: MIC, microtiter broth dilution. The test is classed as cell-based. The following applies: Enterococcus faecalis, 18 h. The gist of the method: as §1
The test system of test [18] is M. morganii NEMC 87-119. The test is described as follows: MIC, microtiter broth dilution. The test is classed as cell-based. Conditions: Morganella morganii, NEMC87119, 18 h, no cysteine stated. Put shortly:
as §1

In test [19] the test system is X. maltophilia FPOR 87-210. Briefly: MIC, microtiter broth dilution. Conditions: Stenotrophomonas maltophilia, FPOR87210, 18 h, no cysteine stated. The test is classed as cell-based. Put shortly: as §1
Test [20] deals with E. coli UBMS 88-1 (tetB). Briefly: microbe, parasite or virus in culture. The test is classed as cell-based. The following applies: Escherichia coli, 18 h. The procedure:
(§3) The minimum inhibitory concentration (MIC), the lowest concentration of the antibiotic which inhibits growth of the test organism, is determined by the microtiter broth dilution method using 0.1 ml Muller-Hinton II broth (Baltimore Biological Laboratories) per well. A suitable oxygen scavenger (i.e., cysteine or dithiothreitol) is added to the assay medium for the testing of compounds according to Formula I because of the sensitivity of those compounds to oxidation. An inoculum level of 1-5×10^5 CFU/ml and a range of antibiotic concentrations (32 0.004 μg/ml) are used.

For test [21], the system named is S. aureus UBMS 88-7 (tetK). Briefly: microbe, parasite or virus in culture. Conditions: Staphylococcus aureus, 18 h. The test is classed as cell-based. The procedure:
as §3

Setting [22] is: in the presence of cysteine (0.05%).

Structures can show the parent of a compound that is named as a salt.

Regarding `CN(C)c1cc(N)c(O)c2c1C[C@H]1C[C@H]3[C@H](N(C)C)C(O)=C(C(N)=O)C(=O)[C@@]3(O)C(O)=C1C2=O` [A, 9-Amino-7-(dimethylamino)-6-demethyl-6-deoxytetracycline hydrochloride], the MIC in [1] (setting [22]) is 0.25 mg/L; in test [2] (setting [22]), 0.5 mg/L; in test [3] (setting [22]), 2 mg/L; in test [4] (setting [22]), 0.008 mg/L; in [5] (setting [22]), 0.25 mg/L; in test [6] (setting [22]), 0.5 mg/L. In addition, the ED50 (commonly the dose at which the effect has come halfway, by size or by number of responders) in test [7] was found to be 2.8 mg/kg; in test [8], 24 mg/kg; in [9] (Oral) it was 0.81 mg/kg; in test [9] (sc, Subcutaneous), 0.34 mg/kg; in test [10] it was 0.3 mg/kg; in test [11] (po) it was 1.6 mg/kg. The molecule also came in with an ED50 in test [11] (sc) of 0.53 mg/kg. For the same molecule, the “ED50 compared with B, strains which carry the tetM resistance determinant” value in test [12] is “Lowered ED50 's”.

For the molecule `CN(C)c1ccc(O)c2c1C[C@H]1C[C@H]3[C@H](N(C)C)C(O)=C(C(N)=O)C(=O)[C@@]3(O)C(O)=C1C2=O` [B, 7-(Dimethylamino)-6-demethyl-6-deoxytetracycline hydrochloride], the MIC in test [13] was 8 mg/L; in test [14] it was 0.5 mg/L; in test [15] it was over 32 mg/L; in test [1] (no cysteine stated), 0.5 mg/L; in test [16], 16 mg/L; in test [2] (no cysteine stated), 4 mg/L. The MIC is 16 mg/L in test [17]; 2 mg/L in [18]; 4 mg/L in test [3] (no cysteine stated); at most 0.004 mg/L in test [4] (no cysteine stated); 8 mg/L in test [5] (no cysteine stated); 1 mg/L in test [6] (no cysteine stated). For the same molecule, the MIC in test [19] stood at 0.06 mg/L; in test [20], 8 mg/L; in [21] it was 0.03 mg/L. Besides, the ED50 in test [7] was 3.1 mg/kg; in [8] it was over 256 mg/kg; in test [9] (Oral) it was 0.53 mg/kg; in [9] (sc, Subcutaneous), 0.32 mg/kg; in test [10] it was 1.7 mg/kg; in [11] (po) it was 1.8 mg/kg. The molecule also had a 50% effective dose (ED50) in [11] (sc) of 1.8 mg/kg.
